SMILES strings stand for the structures.

As usually defined, the EC50 is the concentration that produces a half-maximal response. As a reminder, the Papp A→B is how fast a substance crosses the layer from the apical side. As a reminder, the Papp B→A is the apparent permeability from the basolateral to the apical side of a cell layer. What is called efflux ratio is a quotient of directional permeabilities that is used to spot active efflux.

In one data set the target is CK1δ (Homo sapiens, UniProt P48730). Kind of data set: CK1δ kinase assay (Kinase-Glo). It counts as biochemical. The conditions noted are these: 10 μM ATP, 2 nM wild type kinase, 85 min at 25° C. The protocol: The reaction mixture was incubated for 85 min at 25° C.; detection was carried out as described for the Kinase-Glo Assay (Promega). Luminescent output was measured on the Perkin Elmer Envision plate reader (PerkinElmer, Waltham, MA).
On the technique in general: In Kinase-Glo more light means more ATP remaining.

A further data set can be described thus: in vitro. The conditions noted are these: human, Caco-2, pH 7.4. The protocol:
1) 50 μL and 25 mL of cell culture medium were added to each well of the Transwell insert and reservoir, respectively. And then the HTS transwell plates were incubated at 37° C., 5% CO2 for 1 hour before cell seeding.
2) Caco-2 cells were diluted to 6.86×10^5 cells/mL with culture medium and 50 μL of cell suspension were dispensed into the filter well of the 96-well HTS Transwell plate. Cells were cultivated for 14-18 days in a cell culture incubator at 37° C., 5% CO2, 95% relative humidity. Cell culture medium was replaced every other day, beginning no later than 24 hours after initial plating.
10 mM stock solutions of test compounds were prepared in DMSO. The stock solutions of positive controls were prepared in DMSO at the concentration of 10 mM.
1) Medium was removed from the reservoir and each Transwell insert and replaced with prewarmed fresh culture medium.
2) Transepithelial electrical resistance (TEER) across the monolayer was measured using Millicell Epithelial Volt-Ohm measuring system (Millipore, USA).
3) The Plate was returned to the incubator once the measurement was done.
The TEER value was calculated according to the following equation: TEER measurement (ohms)*Area of membrane (cm^2)=TEER value (ohm·cm^2) TEER value should be greater than 230 ohm·cm^2, which indicates the well-qualified Caco-2 monolayer.
1) The Caco-2 plate was removed from the incubator and washed twice with pre-warmed HBSS (10 mM HEPES, pH 7.4), and then incubated at 37° C. for 30 minutes.
2) The stock solutions of control compounds and test compounds were diluted in DMSO to get 1 mM solutions and then diluted with HBSS (10 mM HEPES, pH 7.4) get 5 μM working solutions. The final concentration of DMSO in the incubation system was 0.5%.
3) To determine the rate of drug transport in the apical to basolateral direction. 125 μL of 5 μM working solution of control compound and test compounds were added to the Transwell insert (apical compartment), and transfer 50 μL sample (DO sample) immediately from the apical compartment to a new 96-well plate. Fill the wells in the receiver plate (basolateral compartment) with 235 μL of HBSS (10 mM HEPES, pH 7.4).
4) To determine the rate of drug transport in the basolateral to apical direction. 285 μL of 5 μM working solution of control compound and test compounds were to the receiver plate wells (basolateral compartment), and transfer 50 μL sample (DO sample) immediately from the basolateral compartment to a new 96-well plate. Fill the wells in the Transwell insert (apical compartment) with 75 μL of HBSS (10 mM HEPES, pH 7.4). The assay was performed in duplicate.
5) The plates were incubated at 37° C. for 2 hours.
Samples were Vortexed for 5 minutes and then centrifuged at 3,220 g for 40 minutes. An aliquot of 100 μL of the supernatant was mixed with an appropriate volume of ultra-pure water before LC-MS/MS analysis.
7) To determine the Lucifer Yellow leakage after 2 hour transport period, stock solution of Lucifer yellow was prepared in water and diluted with HBSS (10 mM HEPES, pH 7.4) to reach the final concentration of 100 μM. 100 μL of the Lucifer yellow solution was added to each Transwell insert (apical compartment), followed by filling the wells in the receiver plate (basolateral compartment) with 300 μL of HBSS (10 mM HEPES, pH 7.4). The plates were Incubated at 37° C. for 30 mins. 80 μL samples were removed directly from the apical and basolateral wells (using the basolateral access holes) and transferred to wells of new 96 wells plates. The Lucifer Yellow fluorescence (to monitor monolayer integrity) signal was measured in a fluorescence plate reader at 485 nm excitation and 530 nm emission.
The apparent permeability coefficient (Papp), in units of centimeter per second, can be calculated for Caco-2 drug transport assays using the following equation: […]

A short description of data set [1]: Intrinsic clearance in liver microsomes (human). The data set is classed as in vitro ADME. The conditions noted are these: Human liver microsomes 0.5 mg/mL, 2 μM compound, 37° C.; for microsomal CLint at 2 μM: read-out: in vitro CLint (μL/min/mg protein); for half-life at 2 μM: read-out: in vitro t1/2. As to the method:
(§1) 1. The master solution was prepared according to Table 4.
(§2) 2. Three separated experiments were performed as follows. a) With NADPH: 10 μL of 20 mg/mL liver microsomes and 40 μL of 10 mM NADPH were added to the incubations. The final concentrations of microsomes and NADPH were 0.5 mg/mL and 1 mM, respectively. b) Without NADPH: 10 μL of 20 mg/mL liver microsomes and 40 μL of ultra-pure H2O were added to the incubations. The final concentration of microsomes was 0.5 mg/mL. c) Heat-inactivated microsomes without NADPH: 10 μL of 20 mg/mL heat-inactivated liver microsomes and 40 μL of ultra-pure H2O were added to the incubations. The final concentration of microsomes was 0.5 mg/mL.
(§3) 3. The reaction was started with the addition of 4 μL of 200 μM test compound solution or control compound solution at the final concentration of 2 μM and carried out at 37° C.
(§4) 4. Aliquots of 50 μL were taken from the reaction solution at 0, 15, 30, 45 and 60 min. The reaction was stopped by the addition of 4 volumes of cold acetonitrile with IS (100 nM alprazolam, 200 nM labetalol, 200 nM caffeine and 2 μM ketoprofen). Samples were centrifuged at 3, 220 g for 40 minutes.
(§5) All calculations were carried out using Microsoft Excel.
(§6) Peak areas were determined from extracted ion chromatograms. The slope value, k, was determined by linear regression of the natural logarithm of the remaining percentage of the parent drug vs. incubation time curve.
(§7) The in vitro half-life (in vitro t1/2) was determined from the slope value:
(§8) Conversion of the in vitro t1/2 (min) into the in vitro intrinsic clearance (in vitro CLint, in μL/min/mg protein) was done using the following equation (mean of duplicate determinations): […]
In general terms: Liver microsomes are vesicles of endoplasmic reticulum, rich in cytochrome P450 enzymes.

Data set [2] in a line: Intrinsic clearance in liver microsomes (mouse). The data set is classed as in vitro ADME. The note with it: Mouse liver microsomes 0.5 mg/mL, 2 μM compound, 37° C.; for microsomal CLint at 2 μM: read-out: in vitro CLint (μL/min/mg protein); for half-life at 2 μM: read-out: in vitro t1/2. The protocol: as §1, §2, §3, §4, §5, §6, §7, §8

CK1δ, sequence (P48730 whole entry): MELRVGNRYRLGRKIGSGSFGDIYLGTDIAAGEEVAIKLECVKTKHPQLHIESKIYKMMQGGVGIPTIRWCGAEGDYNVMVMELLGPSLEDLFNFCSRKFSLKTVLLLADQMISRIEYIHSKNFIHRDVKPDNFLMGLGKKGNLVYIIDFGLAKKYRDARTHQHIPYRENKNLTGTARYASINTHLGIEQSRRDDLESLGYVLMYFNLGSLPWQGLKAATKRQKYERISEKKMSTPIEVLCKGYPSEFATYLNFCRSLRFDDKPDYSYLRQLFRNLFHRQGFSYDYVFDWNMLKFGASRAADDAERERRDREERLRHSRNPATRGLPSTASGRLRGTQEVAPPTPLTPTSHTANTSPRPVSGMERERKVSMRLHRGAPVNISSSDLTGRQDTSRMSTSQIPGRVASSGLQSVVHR

Regarding `Cn1cc(-c2ccnc3ccnn23)c(-c2ccc(F)cc2)n1` [Compound I-1, 7-(3-(4-fluorophenyl)-1-methyl-1H-pyrazol-4-yl)pyrazolo[1,5-a]pyrimidine], the midpoint of the response at CK1δ, the EC50, lay at 15000 nM.

In turn, `Cc1cn2nccc(-c3cn(C)nc3-c3ccc(F)cc3)c2n1` [Compound I-4, 8-(3-(4-fluorophenyl)-1-methyl-1H-pyrazol-4-yl)-2-methyli-midazo[1,2-b]pyridazine] came in with an EC50 at CK1δ of 2700 nM.

Consider `Cn1cc(-c2ccnn3c(N)cnc23)c(-c2ccc(F)cc2)n1` [Compound I-8, 8-(3-(4-fluorophenyl)-1-methyl-1H-pyrazol-4-yl)imidazo[1,2-b]pyridazin-3-amine], for which, on CK1δ, the midpoint of the response, the EC50, lay at 3300 nM. The EC50 values of the last two compounds are within 1.5-fold of each other.

Compound `Cn1cc(-c2ccnn3cccc23)c(-c2ccc(F)cc2)n1` [Compound I-9, 4-(3-(4-fluorophenyl)-1-methyl-1H-pyrazol-4-yl)pyrrolo[1,2-b]pyridazine] gave an EC50 on CK1δ of 2500 nM.

Compound `Cn1cc(-c2ccnn3cnnc23)c(-c2ccc(F)cc2)n1` [Compound I-10, 8-(3-(4-fluorophenyl)-1-methyl-1H-pyrazol-4-yl)-[1,2,4]triazo-lo[4,3-b]pyridazine] displayed an EC50 at CK1δ of 7900 nM.

`COC(=O)c1cn2nccc(-c3cn(C)nc3-c3ccc(F)cc3)c2n1` [Compound I-12, methyl 8-(3-(4-fluorophenyl)-1-methyl-1H-pyrazol-4-yl)imidazo[1,2-b]pyridazine-2-carboxylate]: a half-maximal effect on CK1δ (EC50) was put at 8600 nM.

In the case of `Cn1cc(-c2ccnn3cc(N)nc23)c(-c2ccc(F)cc2)n1` [Compound I-13, 8-(3-(4-fluorophenyl)-1-methyl-1H-pyrazol-4-yl)imidazo[1,2-b]pyridazin-2-amine], the midpoint of the response on CK1δ, the EC50, lay at 2800 nM.

For the compound `Cn1cc(-c2ccnn3cc(CN)nc23)c(-c2ccc(F)cc2)n1` [Compound I-14], it took 200 nM to reach a half-maximal effect on CK1δ (EC50). In addition, in the data set “in vitro”, the Papp A→B at 2 h, 5 μM is 13 ×10⁻⁶ cm/s; the Papp B→A at 2 h, 5 μM came to 31.5 ×10⁻⁶ cm/s; the efflux ratio at 2 h, 5 μM turned out to be 2.43. Further, in data set [1], the microsomal CLint at 2 μM worked out at 0.93 µL/min/mg and the half-life at 2 μM came to 1490 min. Moreover, in data set [2], the microsomal CLint at 2 μM stood at 5.9 µL/min/mg and the half-life at 2 μM is 235 min.

`Cn1cc(-c2ccnn3cc(C(N)=O)nc23)c(-c2ccc(F)cc2)n1` [Compound I-15, 8-(3-(4-fluorophenyl)-1-methyl-1H-pyrazol-4-yl)imidazo[1,2-b]pyridazine-2-carboxamide]: the EC50 at CK1δ amounted to 500 nM. Also, in “in vitro”, the Papp A→B at 2 h, 5 μM worked out at 24.8 ×10⁻⁶ cm/s; the Papp B→A at 2 h, 5 μM came out at 25.2 ×10⁻⁶ cm/s; the efflux ratio at 2 h, 5 μM worked out at 1.02. For the same compound, in data set [2], the microsomal CLint at 2 μM came to 38.8 µL/min/mg and the half-life at 2 μM was found to be 35.7 min.

`CNC(=O)c1cn2nccc(-c3cn(C)nc3-c3ccc(F)cc3)c2n1` [Compound I-16, 8-(3-(4-fluorophenyl)-1-methyl-1H-pyrazol-4-yl)-N-methyli-midazo[1,2-b]pyridazine-2-carboxamide] registered a concentration for a half-maximal effect (EC50) at CK1δ of 700 nM. Besides, in “in vitro”, the apparent permeability from apical to basolateral (Papp A→B) at 2 h, 5 μM came to 22.4 ×10⁻⁶ cm/s; the Papp B→A at 2 h, 5 μM is 20.8 ×10⁻⁶ cm/s; the efflux ratio at 2 h, 5 μM is 0.93. Besides, in data set [1], the microsomal CLint at 2 μM was 12.5 µL/min/mg and the half-life at 2 μM stood at 111 min. Moreover, in data set [2], the microsomal CLint at 2 μM was 66.8 µL/min/mg and the half-life at 2 μM was 20.7 min.

`Cn1cc(-c2ccnn3cc(C(C)(C)O)nc23)c(-c2ccc(F)cc2)n1` [Compound I-17, 2-(8-(3-(4-fluorophenyl)-1-methyl-1H-pyrazol-4-yl)imidazo[1,2-b]pyridazin-2-yl)propan-2-ol] displayed an EC50 on CK1δ of 400 nM. In the data set “in vitro”, the Papp A→B at 2 h, 5 μM amounted to 25.3 ×10⁻⁶ cm/s; the Papp B→A at 2 h, 5 μM was determined as 19.4 ×10⁻⁶ cm/s; the efflux ratio at 2 h, 5 μM amounted to 0.77. In addition, in data set [1], the microsomal CLint at 2 μM turned out to be 3.25 µL/min/mg and the half-life at 2 μM worked out at 427 min. Besides, in data set [2], the microsomal CLint at 2 μM worked out at 19.1 µL/min/mg and the half-life at 2 μM turned out to be 72.6 min.

`CNc1cn2nccc(-c3cn(C)nc3-c3ccc(F)cc3)c2n1` [Compound I-19, 8-(3-(4-fluorophenyl)-1-methyl-1H-pyrazol-4-yl)-N-methyli-midazo[1,2-b]pyridazin-2-amine]: the midpoint of the response at CK1δ, the EC50, lay at 25000 nM.

The compound `CC(=O)Nc1cn2nccc(-c3cn(C)nc3-c3ccc(F)cc3)c2n1` [Compound I-20, N-(8-(3-(4-fluorophenyl)-1-methyl-1H-pyrazol-4-yl)imidazo [1,2-b]pyridazin-2-yl)acetamide] came in with an EC50 at CK1δ of 2500 nM.

`CC(=O)NCc1cn2nccc(-c3cn(C)nc3-c3ccc(F)cc3)c2n1` [Compound I-21, N-((8-(3-(4-fluorophenyl)-1-methyl-1H-pyrazol-4-yl)imidazo [1,2-b]pyridazin-2-yl)methyl)acetamide] had a half-maximal effective concentration (EC50) at CK1δ of 5300 nM.

`CNCc1cn2nccc(-c3cn(C)nc3-c3ccc(F)cc3)c2n1` [Compound I-22, 1-(8-(3-(4-fluorophenyl)-1-methyl-1H-pyrazol-4-yl)imidazo[1,2-b]pyridazin-2-yl)-N-methylmethanamine] registered an EC50 at CK1δ of 300 nM. In “in vitro”, the Papp A→B at 2 h, 5 μM was 12.7 ×10⁻⁶ cm/s; the Papp B→A at 2 h, 5 μM came out at 32.1 ×10⁻⁶ cm/s; the efflux ratio at 2 h, 5 μM is 2.52. Moreover, in data set [1], the microsomal CLint at 2 μM stood at 2.64 µL/min/mg and the half-life at 2 μM came to 525 min. Also, in data set [2], the microsomal CLint at 2 μM amounted to 18.9 µL/min/mg and the half-life at 2 μM amounted to 73.2 min.

For the compound `CC(=O)N1CCn2nc(-c3ccc(F)cc3)c(-c3ccnc4[nH]ccc34)c2C1` [Compound I-24, 1-(2-(4-fluorophenyl)-3-(1H-pyrrolo[2,3-b]pyridin-4-yl)-6,7-dihydropyrazolo[1,5-a]pyrazin-5(4H)-yl)ethan-1-one], the EC50 at CK1δ was 800 nM. In “in vitro”, the apparent permeability from apical to basolateral (Papp A→B) at 2 h, 5 μM came to 5.28 ×10⁻⁶ cm/s; the Papp B→A at 2 h, 5 μM is 18.4 ×10⁻⁶ cm/s; the efflux ratio at 2 h, 5 μM came to 3.49. Besides, in data set [1], the microsomal CLint at 2 μM turned out to be 7.47 µL/min/mg and the half-life at 2 μM was found to be 186 min. For the same compound, in data set [2], the microsomal CLint at 2 μM turned out to be 24.7 µL/min/mg and the half-life at 2 μM was found to be 56.1 min.
